Counter-ions that a name gives are not always drawn.

The first assay has as its system COPD macrophages and alveolar macrophages from cigarette smoke-exposed mice.
Experiment: not given
The following applies: cited from earlier work.
As to `C[S+]([O-])CCCCN=C=S` (stereo not drawn) [Sulforaphane], the “expression of Macrophage Receptor with Collagenous structure (MARCO)” value is “increases the expression of Macrophage Receptor with Collagenous structure (MARCO)”.

The test system of a further assay is NQO1 specific enzyme activity in BEAS-2B cells (marker for NRF2 activation). The assay can be described thus: BEAS-2B NQO1 MTT Assay. It counts as cell-based. The following applies: Homo sapiens, BEAS-2B, 48 h, NQO1 specific activity induction, 48 hours with compound. A digest of the protocol: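 Following 48 h compound treatment at 37° C., 5% CO2, cells were lysed and MTT cocktail added. Product formation was followed kinetically at 570 nm for 30 min. Rate (Delta OD/min) against log concentration was fitted with 3 parameters to give pEC50 for induction of NQO1 specific activity.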
One may read the EC50 as the concentration needed to bring the measured effect to its halfway point. As to `CC[C@H]1Cc2ccccc2S(=O)(=O)N(Cc2cc([C@@H](OCc3cn(C)nn3)C(C)(C)C(=O)O)ccc2C)C1` [Example 119, (R)-3-(3-(((S)-4-Ethyl-1,1-dioxido-4,5-dihydrobenzo[f][1,2]thiazepin-2(3H)-yl)methyl)-4-methylphenyl)-2,2-dimethyl-3-((1-methyl-1H-1,2,3-triazol-4-yl)methoxy)propanoic acid], the EC50 was below 1 nM. In the case of `Cc1cc(Cn2cc(CO)nn2)cc(Cn2cc(COC(c3ccc(C)c(CN4C[C@@H](C)Oc5ccccc5S4(=O)=O)c3)C(C)(C)C(=O)O)nn2)c1` (stereo partly drawn) [Example 29, 3-((1-(3-((4-(Hydroxy-methyl)-1H-1,2,3-triazol-1-yl)methyl)-5-methylbenzyl)-1H-1,2,3-triazol-4-yl)methoxy)-2,2-dimethyl-3-(4-methyl-3-(((R)-4-methyl-1,1-dioxido-3,4-dihydro-2H-benzo[b][1,4,5]oxathiazepin-2-yl)methyl)phenyl)propanoic acid], the EC50 is 10 to 100 nM.

As for `Cc1ccc(C(OCc2cn(CC3CCNCC3)nn2)C(C)(C)C(=O)O)cc1CN1C[C@@H](C)Oc2ccccc2S1(=O)=O` (stereo partly drawn) [Example 53, 2,2-Dimethyl-3-(4-methyl-3-(((R)-4-methyl-1,1-dioxido-3,4-dihydro-2H-benzo[b][1,4,5]oxathiazepin-2-yl)methyl)phenyl)-3-((1-(piperidin-4-ylmethyl)-1H-1,2,3-triazol-4-yl)methoxy)propanoic Acid, Formic Acid Salt], the EC50 was in the range of 100 to 1000 nM. Turning to `CC[C@@H]1CN(Cc2cc(C(OCc3cn(Cc4cccc(-c5ccc(C(=O)O)c(F)c5)c4)nn3)C(C)(C)C(=O)O)ccc2C)S(=O)(=O)c2ccccc2O1` (stereo partly drawn) [Example 24, 3′-((4-((2-Carboxy-1-(3-(((R)-4-ethyl-1,1-dioxido-3,4-dihydro-2H-benzo[b][1,4,5]oxathiazepin-2-yl)methyl)-4-methylphenyl)-2-methylpropoxy)methyl)-1H-1,2,3-triazol-1-yl)methyl)-3-fluoro-[1,1′-biphenyl]-4-carboxylic acid], the half-maximal effective concentration (EC50) was 10 to 100 nM.

Turning to `CCCn1cc(COC(c2ccc(C)c(CN3C[C@@H](C)Oc4ccccc4S3(=O)=O)c2)C(C)(C)C(=O)O)nn1` (stereo partly drawn) [Example 8, 2,2-Dimethyl-3-(4-methyl-3-(((R)-4-methyl-1,1-dioxido-3,4-dihydro-2H-benzo[b][1,4,5]oxathiazepin-2-yl)methyl)phenyl)-3-((1-propyl-1H-1,2,3-triazol-4-yl)methoxy)propanoic acid], the EC50 was in the range of 1 to 10 nM. Turning to `CCCC(=O)N1CCC(Cn2cc(COC(c3ccc(C)c(CN4C[C@@H](C)Oc5ccccc5S4(=O)=O)c3)C(C)(C)C(=O)O)nn2)CC1` (stereo partly drawn) [Example 34, 3-((1-((1-Butyrylpiperidin-4-yl)methyl)-1H-1,2,3-triazol-4-yl)methoxy)-2,2-dimethyl-3-(4-methyl-3-(((R)-4-methyl-1,1-dioxido-3,4-dihydro-2H-benzo[b][1,4,5]oxathiazepin-2-yl)methyl)phenyl)propanoic acid], the concentration giving a half-maximal response (EC50) lay in the range of 10 to 100 nM. On the same count and under the same terms, to `COC(=O)C(C)(C)C(OCc1cn(Cc2cccc(-c3ccc(C(=O)O)cn3)c2)nn1)c1ccc(C)c(CN2C[C@@H](C)Oc3ccccc3S2(=O)=O)c1` (stereo partly drawn) [Example 59, 6-(3-((4-((3-Methoxy-2,2-dimethyl-1-(4-methyl-3-(((R)-4-methyl-1,1-dioxido-3,4-dihydro-2H-benzo[b][1,4,5]oxathiazepin-2-yl)methyl)phenyl)-3-oxopropoxy)methyl)-1H-1,2,3-triazol-1-yl)methyl)-phenyl)nicotinic acid] belongs 1000 to 10000 nM; to `Cc1ccc([C@@H](OCc2cn(CCOCCn3cc(CO[C@H](c4ccc(C)c(CN5C[C@@H](C)Oc6ccccc6S5(=O)=O)c4)C(C)(C)C(=O)O)nn3)nn2)C(C)(C)C(=O)O)cc1CN1C[C@@H](C)Oc2ccccc2S1(=O)=O` (relative stereo) [Example 51, (R,rel-3R, rel-3′R)-3,3′-(((1,1′-(oxybis(ethane-2,1-diyl))bis(1H-1,2,3-triazole-4,1-diyl))bis(methylene))bis(oxy))bis(2,2-dimethyl-3-(4-methyl-3-(((R)-4-methyl-1,1-dioxido-3,4-dihydro-2H-benzo[b][1,4,5]oxathiazepin-2-yl)methyl)phenyl)propanoic acid)], 1000 to 10000 nM. The same measure, in the same setting: to `CCn1cc(COC(c2ccc(C)c(CN(CC3CCCCCC3)C(C)=O)c2)C(C)(C)C(=O)O)nn1` (stereo not drawn) [Example 54, 3-(3-((N-(cycloheptylmethyl)acetamido)methyl)-4-methylphenyl)-3-((1-ethyl-1H-1,2,3-triazol-4-yl)methoxy)-2,2-dimethylpropanoic acid] belongs 100 to 1000 nM; to `Cc1ccc(C(OCc2cn(Cc3cccc(-c4ccc(C(=O)O)cc4)c3)nn2)C(C)(C)C(=O)O)cc1CN1C[C@@H](C)Oc2ccccc2S1(=O)=O` (stereo partly drawn) [Example 25, 3′-((4-((2-Carboxy-2-methyl-1-(4-methyl-3-(((R)-4-methyl-1,1-dioxido-3,4-dihydro-2H-benzo[b][1,4,5]oxathiazepin-2-yl)methyl)phenyl)propoxy)methyl)-1H-1,2,3-triazol-1-yl)methyl)-[1,1′-biphenyl]-4-carboxylic acid], 10 to 100 nM.

Turning to `CCCn1cc(CO[C@H](c2ccc(C)c(CN3CC(C)(C)Oc4ccccc4S3(=O)=O)c2)C(C)(C)C(=O)O)nn1` [Example 78, (R)-3-(3-((4,4-dimethyl-1,1-dioxido-3,4-dihydro-2H-benzo[b][1,4,5]oxathiazepin-2-yl)methyl)-4-methylphenyl)-2,2-dimethyl-3-((1-propyl-1H-1,2,3-triazol-4-yl)methoxy)propanoic acid], the EC50 was in the range of 1 to 10 nM. For the molecule `CCn1cc(COC(c2ccc(C)c(CN(C3CCCCC3)S(=O)(=O)c3ccccc3)c2)C(C)(C)C(=O)O)nn1` (stereo not drawn) [Example 98, 3-(3-((N-cyclohexylphenylsulfonamido)methyl)-4-methylphenyl)-3-((1-ethyl-1H-1,2,3-triazol-4-yl)methoxy)-2,2-dimethylpropanoic acid], the EC50 lay in the range of 10 to 100 nM. As to `CCCn1cc(CO[C@H](c2ccc(C)c(CN3C[C@@H](C)Cc4ccncc4S3(=O)=O)c2)C(C)(C)C(=O)O)nn1` [Example 83, (R)-2,2-dimethyl-3-(4-methyl-3-(((S)-4-methyl-1,1-dioxido-4,5-dihydropyrido[4,3-f][1,2]thiazepin-2(3H)-yl)methyl)phenyl)-3-((1-propyl-1H-1,2,3-triazol-4-yl)methoxy)propanoic acid], the concentration for a half-maximal effect (EC50) was below 1 nM. Regarding `CC[C@@H]1CN(Cc2cc(C(OCc3cn(CCOC)nn3)C(C)(C)C(=O)O)ccc2C)S(=O)(=O)c2ccccc2O1` (stereo partly drawn) [Example 106, 3-(3-(((R)-4-ethyl-1,1-dioxido-3,4-dihydro-2H-benzo[b][1,4,5]oxathiazepin-2-yl)methyl)-4-methylphenyl)-3-((1-(2-methoxyethyl)-1H-1,2,3-triazol-4-yl)methoxy)-2,2-dimethylpropanoic acid], the EC50 was below 1 nM. In the case of `Cc1ccc([C@@H](OCc2cn(CCOCCN=[N+]=[N-])nn2)C(C)(C)C(=O)O)cc1CN1C[C@@H](C)Oc2ccccc2S1(=O)=O` (single isomer, unassigned) [Example 15], the EC50 fell in the range of 10 to 100 nM.

Take `CC[C@@H]1CN(Cc2cc([C@H](OCc3cn(C)nn3)C(C)(C)C(=O)O)ccc2C)Cc2ncccc2O1` [Example 111, (S)-methyl-3-(3-(((R)-2-ethyl-2,3-dihydropyrido[2,3-f][1,4]oxazepin-4(5H)-yl)methyl)-4-methyl-phenyl)-2,2-dimethyl-3-((1-methyl-1H-1,2,3-triazol-4-yl)-methoxy)-propanoic acid]: the concentration giving a half-maximal response (EC50) fell in the range of 100 to 1000 nM.

The subject of a further assay is rats in a cerebral ischemia-reperfusion model.
Experiment: not given
The following applies: cited from earlier work.
In the case of `CC(C)(C)c1cc(O)ccc1O` [tert-butylhydroquinone], the cortical damage entry is “reduced cortical damage”.

Another assay concerns rats on a choline-deficient L-amino acid-defined diet.
Experiment: not given
The following applies: cited from earlier work.
Consider `Cc1c(-c2cnccn2)ssc1=S` [oltipraz], for which the “progression of histologic abnormalities, especially hepatic fibrosis” value was “significantly attenuated”. Regarding `O=C(NCc1ccccn1)Nc1nnc(-c2ccco2)o1` [NK-252], the “progression of histologic abnormalities, especially hepatic fibrosis” value was “significantly attenuated”.

The test system of the next assay is NRF2 wild-type but not KO mice.
Experiment: not given
The following applies: after administration of tBHQ; cited from earlier work.
Turning to `CC(C)(C)c1cc(O)ccc1O` [tert-butylhydroquinone], the cortical glutathione levels result is “increased in NRF2 wild-type but not KO mice”.

Source of the values: US12091409B2, “Ether linked triazoles as NRF2 activators” (ASTEX THERAPEUTICS LIMITED, priority 2016, dated 2024).
